Laboratory results published in patent publication US7101915B1, “P-terphenyl compounds” (Shionogi & Co., Ltd., priority 1996, dated 2006).
Values after ≈ are worked out from the molar mass of the structure shown.

What was measured:
Assay type in all cases: cell-based
Conditions in all cases: EL-4, TPA 10 ng/ml, 24 hours, ELISA; for IC50: Mus musculus, T-cell
[1] = tested on: IL-5 production of mouse T cell strain EL-4 (TPA); assay: Suppressive effect on the cytokine production of mouse T cell strain EL-4: IL-5
Description: (§1) Experiment 8 Suppressive Effect on the Cytokine Production of a Mouse T Cell Strain EL-4 In 48-well plate were added 2×10^5 mouse T cell strain EL-4 which were suspended in 0.2 ml of 1% fetal bovine serum-added RPMI 1640 medium (2 mM of sodium bicarbonate, 50 units/ml of penicillin, 50 μg/ml of streptomycin and 5×10^−5 M of 2-mercaptoethanol were added) and the compound of the present invention of a predetermined concentration. TPA was added as a cell stimulater at a final concentration of 10 ng/ml to adjust a final volume of each well to 0.4 ml. Each compound of the present invention was dissolved in DMSO and diluted with the above RPMI 1640 medium, and then for added at a final concentration of 100 ng/ml or less. The cells in the 48-well plate were cultivated in an incubator keeping the humidity 100%, carbon dioxide 5% and air 95% at 37° C. for 24 hours to collect a supernatant of each well. The amount of IL-2, IL-4 and IL-5 released in the medium of each well were measured with the ELISA kit (Amersham K. K.) to be taken as an index of the cytokine production of the cells. TPA free group (-TPA) was used as a control.

[2] = tested on: IL-2 production of mouse T cell strain EL-4 (TPA); assay: Suppressive effect on the cytokine production of mouse T cell strain EL-4: IL-2
Description: as §1

[3] = tested on: IL-4 production of mouse T cell strain EL-4 (TPA); assay: Suppressive effect on the cytokine production of mouse T cell strain EL-4: IL-4
Description: as §1

Row | SMILES | IC50 IL-5 [1] [µg/mL] | IC50 IL-2 [2] [µg/mL] | IC50 IL-4 [3] [µg/mL] | IC50 [1] [µg/mL] | IC50 [2] [µg/mL] | IC50 [3] [µg/mL]
1 | COc1cc(-c2ccc(O)cc2)c(OC)c(O)c1-c1ccc(OCc2cc(C)cc(C)c2)c(O)c1 [Compound I-209] | 0.012 (≈ 0.0254 µM) | >0.2 | 0.014 (≈ 0.0296 µM) |  |  | 
2 | COc1cc(-c2ccc(OS(C)(=O)=O)cc2)c(OC)c(OS(C)(=O)=O)c1-c1ccc(OCc2c(C)cc(C)cc2C)c(OS(C)(=O)=O)c1 [Compound I-202] | <0.02 | >2 | <0.02 |  |  | 
3 | COc1cc(-c2ccc(OS(C)(=O)=O)cc2)c(OC)c(OS(C)(=O)=O)c1-c1cc(C=O)c(OCC=C(C)C)c(OS(C)(=O)=O)c1 [Compound I-128] | 0.45 (≈ 0.657 µM) | >10 | 0.14 (≈ 0.204 µM) |  |  | 
4 | COc1cc(-c2ccc(O)cc2)c(OC)c(O)c1-c1ccc(S(=O)(=O)CC=C(C)C)c(O)c1 [Compound I-226] | 0.3 (≈ 0.638 µM) | 0.88 (≈ 1.87 µM) | 0.017 (≈ 0.0361 µM) |  |  | 
5 | COc1cc(-c2cccc(C(F)(F)F)c2)c(OC)c(O)c1-c1ccc(OCCC=C(C)C)c(O)c1 [Compound I-220] | 0.72 (≈ 1.47 µM) | >1 | 0.15 (≈ 0.307 µM) |  |  | 
6 | COc1cc(-c2ccc(C(F)(F)F)cc2)c(OC)c(OS(C)(=O)=O)c1-c1ccc(OCC=C(C)C)c(OS(C)(=O)=O)c1 [Compound I-189] | 10 (≈ 15.9 µM) | >10 | 0.1 (≈ 0.159 µM) |  |  | 
7 | COc1cc(-c2ccc(OCC=C(C)C)c(OS(C)(=O)=O)c2)c(OC)cc1-c1ccc(OS(C)(=O)=O)cc1 [Compound I-70] | 1 (≈ 1.78 µM) | >2 | 0.0002 (≈ 0.000355 µM) |  |  | 
8 | COc1cc(-c2ccc(OS(C)(=O)=O)cc2)c(OC)c(OS(C)(=O)=O)c1-c1ccc(OCc2ccccc2)c(C=O)c1 [Compound I-83] | 1 (≈ 1.63 µM) | >10 | 0.14 (≈ 0.229 µM) |  |  | 
9 | COc1cc(-c2ccc(F)cc2)c(OC)c(O)c1-c1ccc(OCc2ccccc2)c(O)c1 [Compound I-4] | 0.12 (≈ 0.269 µM) | >0.5 | 0.014 (≈ 0.0314 µM) |  |  | 

More lines, now with the values ahead:

Row | IC50 IL-5 [1] [µg/mL] | IC50 IL-2 [2] [µg/mL] | IC50 IL-4 [3] [µg/mL] | IC50 [1] [µg/mL] | IC50 [2] [µg/mL] | IC50 [3] [µg/mL] | SMILES
10 | >1 | >1 | 0.088 (≈ 0.201 µM) |  |  |  | COc1cc(-c2ccc(F)cc2)c(OC)c(C=O)c1-c1ccc(OCC=C(C)C)c(F)c1 [Compound I-379]
11 |  |  |  | 0.9 (≈ 1.37 µM) | > 1 | 0.054 (≈ 0.0822 µM) | COC(=O)c1ccc(-c2cc(OC)c(-c3ccc(OCc4ccc(C)cc4)c(OS(C)(=O)=O)c3)c(OS(C)(=O)=O)c2OC)cc1 [Compound I-239]
12 | 0.38 (≈ 0.639 µM) | >1 | 0.072 (≈ 0.121 µM) |  |  |  | COc1cc(-c2c(OC)cc(-c3ccc(OS(C)(=O)=O)cc3)c(OC)c2CO)c(OC)cc1OCc1ccc(C)cc1 [Compound I-368]
13 | 0.28 (≈ 0.617 µM) | >1 | 0.025 (≈ 0.0551 µM) |  |  |  | COc1cc(-c2ccc(O)cc2)c(OC)c(O)c1-c1ccc(OCC=NNC(N)=O)c(O)c1 [Compound I-302]
14 |  |  |  | > 0.55 | > 0.5 | 0.063 (≈ 0.114 µM) | COc1cc(-c2ccc(OS(C)(=O)=O)cc2)c(OC)c(CO)c1-c1ccc(OCc2ccccc2)c(CO)c1 [Compound I-243]
15 | 0.047 (≈ 0.111 µM) | >1 | 0.07 (≈ 0.165 µM) |  |  |  | COc1cc(-c2ccc(O)cc2)c(OC)c(O)c1-c1ccc(OC/C=C/CO)c(O)c1 [Compound I-296]
16 | 0.08 (≈ 0.184 µM) | >1 | 0.042 (≈ 0.0967 µM) |  |  |  | COc1cc(-c2ccc(O)cc2)c(OC)c(C)c1-c1ccc(OCCC=C(C)C)c(O)c1 [Compound I-229]
17 | 0.88 (≈ 1.45 µM) | >1 | 0.1 (≈ 0.165 µM) |  |  |  | COc1cc(-c2ccc(N(C)C)cc2)c(OC)c(OS(C)(=O)=O)c1-c1ccc(OCC=C(C)C)c(OS(C)(=O)=O)c1 [Compound I-242]
